pIC50: −log10 of the molar value.

Assay [1] has as its system asymmetric di-methyl PABP1 in RKO cells. Briefly: In Cell Western (ICW) for asymmetric di-methyl PABP1 and DNA content in RKO cells. The conditions noted are these: In Cell Western. In kind it is cell-based. The text has this: RKO adherent cells were purchased from ATCC (American Type Culture Collection), Manassas, Va., USA. DMEM/Glutamax medium, penicillin-streptomycin, heat inactivated fetal bovine serum, 0.05% trypsin and D-PBS were purchased from Life Technologies, Grand Island, N.Y., USA. Odyssey blocking buffer, 800CW goat anti-rabbit IgG (H+L) antibody, and Licor Odyssey infrared scanner were purchased from Licor Biosciences, Lincoln, Nebr., USA. Mono-methyl arginine antibody was purchased from Cell Signaling Technology, Danvers, Mass., USA. Methanol was purchased from VWR, Franklin, Mass., USA. 10% Tween 20 was purchased from KPL, Inc., Gaithersburg, Md., USA. […] was purchased from Biostatus Limited, Leicestershire, UK. RKO adherent cells were maintained in growth medium (DMEM/Glutamax medium supplemented with 10% v/v heat inactivated fetal bovine serum and 100 units/mL penicillin-streptomycin) and cultured at 37° C. under 5% CO2. Cell Treatment, in Cell Western (ICW) for Detection of Asymmetric Di-Methyl PABP1 and DNA Content. RKO cells were seeded in assay medium at a concentration of 30,000 cells per mL to a poly-D-lysine coated 384 well culture plate (BD Biosciences 356697) with 50 μL per well. Compound (100 nL) from a 96-well source plate was added directly to 384 well cell plate. Plates were incubated at 37° C., 5% CO2 for 48 hours. After two days of incubation, plates were brought to room temperature outside of the incubator for ten minutes and blotted on paper towels to remove cell media. Cells were fixed for 20 minutes at room temperature by adding 50 μl of 8% PFA followed by aspiration of supernatant with the Biotek EL406 plate washer. Cells were then permeabilized by addition of 50 μL of ice cold 100% methanol directly to each well and incubated for 30 min at room temperature. After 30 min, plates were transferred to a Biotek EL406 plate washer and washed 2 times with 100 μL per well of wash buffer (1×PBS). Next 60 μL per well of Odyssey blocking buffer (Odyssey Buffer with 0.1% Tween 20 (v/v)) were added to each plate and incubated 1 hour at room temperature. Blocking buffer was removed and 20 μL per well of primary antibody was added (asymmetric-methyl PABP1) diluted 1:400 in Odyssey buffer with 0.1% Tween 20 (v/v)) and plates were incubated overnight (16 hours) at 4° C. Plates were washed 5 times with 100 μL per well of wash buffer. Next 20 μL per well of secondary antibody was added (1:800 800CW goat anti-rabbit IgG (H+L) antibody, 1:2000 DRAQS in Odyssey buffer with 0.1% Tween 20 (v/v)) and incubated for 1 hour at room temperature. The plates were washed 5 times with 100 μL per well wash buffer then 2 times with 100 μL per well of water. Plates were allowed to dry at room temperature then imaged on the Licor Odyssey machine which measures integrated intensity at 700 nm and 800 nm wavelengths. Both 700 and 800 channels were scanned. Calculations: First, the ratio for each well was determined by: Each plate included fourteen control wells of DMSO only treatment (minimum inhibition) as well as fourteen control wells for maximum inhibition treated with 20 μM of a reference compound. The average of the ratio values for each control type was calculated and used to determine the percent activation for each test well in the plate. Reference compound was serially diluted three-fold in DMSO for a total of nine test concentrations, beginning at 20 μM. Percent inhibition was determined and IC50 curves were generated using triplicate wells per concentration of compound.

Another assay has as its target T1, Human CARM1 (PRMT4) (Homo sapiens, UniProt Q86X55).
T1 construct: Flag-CARM1-His; made in house; host or cells: HEK 293F cells (BacMam baculovirus, pFastBacMam)
T1 sequence (Q86X55 2-585 isoform Q86X55-1): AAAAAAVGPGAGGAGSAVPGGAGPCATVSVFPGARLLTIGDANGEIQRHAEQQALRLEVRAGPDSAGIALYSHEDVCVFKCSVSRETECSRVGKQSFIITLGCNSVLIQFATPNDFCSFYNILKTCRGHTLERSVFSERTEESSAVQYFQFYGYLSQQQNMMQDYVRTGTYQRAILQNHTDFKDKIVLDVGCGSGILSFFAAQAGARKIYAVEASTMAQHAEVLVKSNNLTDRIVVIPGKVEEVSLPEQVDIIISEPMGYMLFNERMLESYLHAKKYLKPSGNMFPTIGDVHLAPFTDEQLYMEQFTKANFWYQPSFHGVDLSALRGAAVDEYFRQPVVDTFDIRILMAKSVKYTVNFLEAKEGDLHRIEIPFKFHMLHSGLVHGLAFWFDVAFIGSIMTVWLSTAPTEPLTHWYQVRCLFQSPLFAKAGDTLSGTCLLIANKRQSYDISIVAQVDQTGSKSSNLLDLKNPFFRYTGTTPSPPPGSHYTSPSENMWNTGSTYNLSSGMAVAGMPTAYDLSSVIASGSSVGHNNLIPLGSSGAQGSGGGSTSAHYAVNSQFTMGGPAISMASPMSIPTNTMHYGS
Briefly: CARM1 biochemical assay (3H-SAM Flashplate, peptide substrate). The conditions noted are these: read-out: CARM1_ IC50. The text has this:
S-adenosylmethionine (SAM), S-adenosylhomocysteine (SAH), bicine, Tween20, dimethylsulfoxide (DMSO), bovine skin gelatin (BSG), sodium butyrate and Tris(2-carboxyethyl)phosphine hydrochloride solution (TCEP) were purchased from Sigma-Aldrich at the highest level of purity possible. ^3H-SAM was purchase from American Radiolabeled Chemicals with a specific activity of 80 Ci/mmol. 384-well streptavidin Flashplates were purchased from PerkinElmer.
Peptide representative of human histone H3 residues 16-30 was synthesized with an N-terminal linker-affinity tag motif and a C-terminal amide cap by 21st Century Biochemicals. The peptide was purified by high-performance liquid chromatography (HPLC) to greater than 95% purity and confirmed by liquid chromatography mass spectrometry (LC-MS). The sequence was Biot-Ahx-[…]-amide and contained a monomethylated arginine at position 26 (SEQ ID NO.: 14).
Human CARM1 (PRMT4) (NM_199141.1) transcript clone was amplified from an HEK 293 cDNA library, incorporating a flanking 5′ sequence encoding a FLAG tag ([…]) (SEQ ID NO.: 6) fused directly to Ala 2 of CARM1 and 3′ sequence encoding a hexa His sequence ([…]) (SEQ ID NO.: 15) fused directly to Ser 608. The gene sequence encoding isoform1 containing a deletion of amino acids 539-561 was amplified subsequently and subcloned into pFastBacMam (Viva Biotech).
Recombinant baculovirus were generated according to Bac-to-Bac kit instructions (Life Technologies). […] Infections were carried out at 37° C. for 48 hours, harvested by centrifugation, and stored at −80° C. for purification.
Column was washed with 500 mM NaCl in buffer A and Flag-CARM1-His was eluted with 200 ug/ml FLAG peptide in buffer A. Pooled fractions were dialyzed in 20 mM Tris, 150 mM NaCl, 5% glycerol and 1 mM DTT, pH 7.8. The purity of recovered protein was 94.
General Procedure for CARM1 Enzyme Assays on Peptide Substrates.
The assays were all performed in a buffer consisting of 20 mM Bicine (pH=7.6), 1 mM TCEP, 0.005% BSG, and 0.002% Tween 20, prepared on the day of use. Compounds in 100% DMSO (1 ul) were spotted into a polypropylene 384-well V-bottom plates (Greiner) using a Platemate Plus outfitted with a 384-channel head (Thermo Scientific). DMSO (1 ul) was added to Columns 11, 12, 23, 24, rows A-H for the maximum signal control and 1 ul of SAH, a known product and inhibitor of CARM1, was added to columns 11, 12, 23, 24, rows I-P for the minimum signal control. A cocktail (40 ul) containing the CARM1 enzyme was added by Multidrop Combi (Thermo-Fisher). The compounds were allowed to incubate with CARM1 for 30 min at room temperature, then a cocktail (10 ul) containing ^3H-SAM and peptide was added to initiate the reaction (final volume=51 ul). The final concentrations of the components were as follows: CARM1 was 0.25 nM, ^3H-SAM was 30 nM, peptide was 250 nM, SAH in the minimum signal control wells was 1 mM, and the DMSO concentration was 2%. The assays were stopped by the addition of non-radiolabeled SAM (10 ul) to a final concentration of 300 uM, which dilutes the ^3H-SAM to a level where its incorporation into the peptide substrate is no longer detectable. 50 ul of the reaction in the 384-well polypropylene plate was then transferred to a 384-well Flashplate and the biotinylated peptides were allowed to bind to the streptavidin surface for at least 1 hour before being washed once with 0.1% Tween20 in a Biotek ELx405 plate washer. The plates were then read in a PerkinElmer TopCount plate reader to measure the quantity of ^3H-labeled peptide bound to the Flashplate surface, measured as disintegrations per minute (dpm) or alternatively, referred to as counts per minute (cpm).
Where dpm=disintegrations per minute, cmpd=signal in assay well, and min and max are the respective minimum and maximum signal controls.
Where top and bottom are the normally allowed to float, but may be fixed at 100 or 0 respectively in a 3-parameter fit. […]

In a further assay the target is T2, human PRMT1 (Homo sapiens, UniProt Q99873).
T2 construct: GST-tagged PRMT1; made in house; host or cells: High Five insect cells (baculovirus, pFastBacI)
T2 sequence (Q99873 with tags, fused parts or gaps): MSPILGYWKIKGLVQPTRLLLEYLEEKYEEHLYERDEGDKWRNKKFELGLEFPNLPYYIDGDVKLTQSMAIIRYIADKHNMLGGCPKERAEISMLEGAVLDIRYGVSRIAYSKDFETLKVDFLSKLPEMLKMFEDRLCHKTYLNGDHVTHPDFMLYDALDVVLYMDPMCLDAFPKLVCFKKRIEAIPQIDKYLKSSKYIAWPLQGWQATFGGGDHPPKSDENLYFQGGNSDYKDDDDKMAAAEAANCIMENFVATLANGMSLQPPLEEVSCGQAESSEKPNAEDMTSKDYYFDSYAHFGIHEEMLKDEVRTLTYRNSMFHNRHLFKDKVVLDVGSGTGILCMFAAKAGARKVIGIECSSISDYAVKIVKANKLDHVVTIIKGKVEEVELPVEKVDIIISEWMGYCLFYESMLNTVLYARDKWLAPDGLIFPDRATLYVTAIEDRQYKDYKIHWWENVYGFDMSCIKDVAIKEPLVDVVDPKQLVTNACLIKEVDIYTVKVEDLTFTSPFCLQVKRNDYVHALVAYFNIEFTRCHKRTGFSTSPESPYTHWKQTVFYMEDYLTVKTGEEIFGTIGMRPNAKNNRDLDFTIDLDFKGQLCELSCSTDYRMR
Briefly: PRMT1 biochemical assay (3H-SAM Flashplate, peptide substrate). The following applies: read-out: PRMT1_ IC50. The text has this:
S-adenosylmethionine (SAM), S-adenosylhomocysteine (SAH), bicine, Tween20, dimethylsulfoxide (DMSO), bovine skin gelatin (BSG), and Tris(2-carboxyethyl)phosphine hydrochloride solution (TCEP) were purchased from Sigma-Aldrich at the highest level of purity possible. ^3H-SAM was purchase from American Radiolabeled Chemicals with a specific activity of 80 Ci/mmol. 384-well streptavidin Flashplates were purchased from PerkinElmer.
Peptide representative of human histone H4 residues 36-50 was synthesized with an N-terminal linker-affinity tag motif and a C-terminal amide cap by 21st Century Biochemicals. The peptide was purified by high-performance liquid chromatography (HPLC) to greater than 95% purity and confirmed by liquid chromatography mass spectrometry (LC-MS). The sequence was Biot-Ahx-[…]-amide (SEQ ID NO.: 1).
Full-length human PRMT1 isoform 1 (NM_001536.5) transcript clone was amplified from an HEK 293 cDNA library, incorporating flanking 5′ sequence encoding a FLAG tag ([…]) (SEQ ID NO.: 2) fused directly to Met 1 of PRMT1. The amplified gene was subcloned into pFastBacI (Life Technologies) modified to encode an N-terminal GST tag and a TEV cleavage sequence ([…] […] […] […] QGGNS)(SEQ ID NO.: 3) fused to Asp of the Flag tag of PRMT1.
Recombinant baculovirus were generated according to Bac-to-Bac kit instructions (Life Technologies). Protein over-expression was accomplished by infecting exponentially growing High Five insect cell culture at 1.5×10^6 cell/ml with 1:100 ratio of virus. Infections were carried out at 27° C. for 48 hours, harvested by centrifugation, and stored at −80° C. for purification.
GST-tagged PRMT1 was eluted with 50 mM Tris, 2 mM glutathione, pH 7.8, dialysed in buffer A and concentrated to 1 mg/mL. The purity of recovered protein was 73%. Reference: Wasilko, D. J. and S. E. Lee: “TIPS: titerless infected-cells preservation and scale-up” Bioprocess J., 5 (2006), pp. 29-32.
General Procedure for PRMT1 Enzyme Assays on Peptide Substrates.
The assays were all performed in a buffer consisting of 20 mM Bicine (pH=7.6), 1 mM TCEP, 0.005% BSG, and 0.002% Tween 20, prepared on the day of use. Compounds in 100% DMSO (1 ul) were spotted into a polypropylene 384-well V-bottom plates (Greiner) using a Platemate Plus outfitted with a 384-channel head (Thermo Scientific). DMSO (1 ul) was added to Columns 11, 12, 23, 24, rows A-H for the maximum signal control and 1 ul of SAH, a known product and inhibitor of PRMT1, was added to columns 11, 12, 23, 24, rows I-P for the minimum signal control. A cocktail (40 ul) containing the PRMT1 enzyme was added by Multidrop Combi (Thermo-Fisher). The compounds were allowed to incubate with PRMT1 for 30 min at room temperature, then a cocktail (10 ul) containing SAM and peptide was added to initiate the reaction (final volume=51 ul). The final concentrations of the components were as follows: PRMT1 was 0.5 nM, ^3H-SAM was 200 nM, non-radiolabeled SAM was 1.5 uM, peptide was 20 nM, SAH in the minimum signal control wells was 1 mM, and the DMSO concentration was 2%. The assays were stopped by the addition of non-radiolabeled SAM (10 ul) to a final concentration of 300 uM, which dilutes the ^3H-SAM to a level where its incorporation into the peptide substrate is no longer detectable. 50 ul of the reaction in the 384-well polypropylene plate was then transferred to a 384-well Flashplate and the biotinylated peptides were allowed to bind to the streptavidin surface for at least 1 hour before being washed once with 0.1% Tween20 in a Biotek ELx405 plate washer. The plates were then read in a PerkinElmer TopCount plate reader to measure the quantity of ^3H-labeled peptide bound to the Flashplate surface, measured as disintegrations per minute (dpm) or alternatively, referred to as counts per minute (cpm).
Where dpm=disintegrations per minute, cmpd=signal in assay well, and min and max are the respective minimum and maximum signal controls. […]

With `CNCCN(C)Cc1cccc(-c2cc(C(=O)NCc3nccs3)c3cnn(C(C)C)c3n2)c1` [Compound 207], the pIC50 in assay [1] (Homo sapiens, RKO) was 5.79; on Human CARM1 (PRMT4) it was 7.69.

On to `CNCCN(C)Cc1cccc(-c2cncc(C(=O)NCc3c(C)cc(C)[nH]c3=O)c2)c1` [Compound 375], for which, on human PRMT1, the negative-log IC50 (pIC50) is 7.00.

Regarding `CC(C)n1ncc2c(C(=O)N3CCN(C)C(=O)C3)cc(-c3cccc(CN(C)CCN)c3)nc21` [Compound 272], the pIC50 is 4.70 in assay [1] (Homo sapiens, RKO) and 7.07 on Human CARM1 (PRMT4).

Regarding `CNCCN(C)Cc1cccc(-c2cc(C(=O)NCC3CCOCC3)c3cnn(CC(F)(F)F)c3n2)c1` [Compound 277], the negative-log IC50 (pIC50) in assay [1] (Homo sapiens, RKO) was 5.14; on Human CARM1 (PRMT4) it was 6.98.

In assay [1] (Homo sapiens, RKO), `CNCCN(C)Cc1cccc(-c2cc(C(=O)NCc3cc(C)on3)c3cnn(C(C)C)c3n2)c1` [Compound 186] had a pIC50 of 5.85.

On to `Cc1cc(C)c(CNC(=O)c2cncc(-c3cccc(CN(C)CCN)c3)c2)c(=O)[nH]1` [Compound 380], for which, at human PRMT1, the pIC50 is 6.47.

The compound `CNCCN(C)Cc1cccc(-c2cc(C(=O)NCc3cc(C)on3)c3cnn(C(C)C)c3n2)c1` [Compound 229] gave a pIC50 in assay [1] of 5.65.

Usually pIC50 stands for the negative decadic logarithm of the IC50, by convention in mol/L.

Values taken from patent US20170280720A1, “ARGININE […] INHIBITORS AND USES THEREOF” (EPIZYME, INC., priority 2014, published 2017).
